For one molecule, MBC and MIC results are on record in US4758565A, “Substituted pyrimidoquinoxalines useful as anti-anaerobic agents” (G. D. Searle & Co., priority 1986, dated 1988).

In brackets after ≈: the same amount, converted by molar mass. Where only a bound is given, the exact number is not on record here.

Common to all, as to type: cell-based
In one assay the test system is B. fragilis NCTC 9344. The assay is described as follows: Screening panel of Bacteroides fragilis, MIC and MBC, strain C. The conditions noted are these: Bacteroides fragilis. The protocol: The screening panel utilized in this example consisted of 5 strains of Bacteroides fragilis. All assays were carried out in 96-well microtitre plates. If an isolate was obtained from either a culture collection or clinical source, the isolate was immediately inoculated into Wilkins-Chalgren broth (Oxoid) and incubated at 37° C. in an anaerobic chamber in an atmosphere of 85% nitrogen, 10% carbon dioxide, and 5% hydrogen for 48 hours. At the end of this time, the viable count was about […] broth. A 1 ml aliquot of each culture was placed in an ampoule and quick frozen in acetone-dry ice mixture and stored in liquid nitrogen. […] A 2 mg sample of the test compound was dissolved in 0.2 ml of a suitable solvent such as dimethylsulfoxide, polyethylene glycol 200 or methanol. […] After addition of the test solution the final inoculum level was 10^5 cells/ml. The plates were incubated for 48 hours at 37° C. in the anaerobic chamber. The Minimum Inhibitory Concentration (MIC) was read visually. The MIC is defined as the lowest concentration at which there is no detectable growth. The Minimum Bactericidal Concentration (MBC) was determined by taking 50 μ l aliquot from each well and placing it in fresh medium. […] The strains of Bacteroides fragilis utilized in the above procedure are identified by letter in accordance with the following legend: |C B. fragilis NCTC 9344

The test system of assay [1] is Clostridium perfringens NCTC 523. Description: microbe, parasite or virus in culture. As to conditions: NCTC523.
The subject of assay [2] is Propionebacterium acnes NCTC 7337. The assay is described as follows: MIC vs panel of anaerobes. As to conditions: procedures of Example 11 (mg/L).

As to `Cc1ccc(C2=[N+]([O-])c3cc(C(F)(F)F)ccc3N3CC(C)(C)CN=C23)cc1` [Example 3, 2,3-Dihydro-2,2-dimethyl-5-(4-methylphenyl)-8-trifluoromethyl-1H-pyrimid [1,2-a]quinoxaline 6-oxide], in the assay with B. fragilis NCTC 9344 (NCTC9344, 48 h, less than 5 colonies (99.9% reduction) after 48 hours, read-out: Minimum Bactericidal Concentration (MBC)), the MBC came out at 3.1 µg/mL (≈ 8 µM). For the same molecule, the MIC is 3.1 µg/mL (≈ 8 µM) in the assay on B. fragilis NCTC 9344 (NCTC9344, 48 hours at 37° C., anaerobic, read-out: Minimum Inhibitory Concentration (MIC)); below 0.8 µg/mL in assay [1]; above 100 µg/mL in assay [2].
